Assay results reported in ChEMBL document CHEMBL1201862, “PubChem BioAssay data set” (2004).
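Exposure lasted 48 hours, with cells grown in 96-well plates and compounds tested at five concentrations. GI50 is the concentration that inhibits growth by half.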 Activity calls are given as the source filed them. Rule as the data show it: active = GI50 up to about 1.1 µM and inactive = higher.

How the values were obtained:
Assay in all cases: inhibition of tumour cell growth, NCI panel, 48 h
[1] = tested on: COLO 205
[2] = tested on: HCT-15
[3] = tested on: HOP-62
[4] = tested on: Malme-3M
[5] = tested on: OVCAR-4
[6] = tested on: SF-539
[7] = tested on: SK-MEL-28
[8] = tested on: SK-MEL-2
[9] = tested on: SK-OV-3
[10] = tested on: SNB-75
[11] = tested on: UACC-62
[12] = tested on: UO-31
[13] = tested on: A498
[14] = tested on: LOX IMVI

Compound	GI50 [1]	GI50 [2] [µM]	GI50 [3]	GI50 [4]	GI50 [5]	GI50 [6]	GI50 [7]	GI50 [8]	GI50 [9]	GI50 [10]	GI50 [11]	GI50 [12]	GI50 [13]	GI50 [14]
CCCN(CCCN)/[N+]([O-])=N\O	> 100 µM (inactive)	> 100	> 100 µM (inactive)	> 100 µM (inactive)	> 100 µM (inactive)	> 100 µM (inactive)	> 100 µM (inactive)	> 100 µM (inactive)	> 100 µM (inactive)	> 100 µM (inactive)	0.195 µM (active)	> 100 µM (inactive)	–	–
COC(=O)Cc1cc(=O)oc2c1C(=O)CCC2	> 100 µM (inactive)	> 100	> 100 µM (inactive)	> 100 µM (inactive)	> 100 µM (inactive)	> 100 µM (inactive)	> 100 µM (inactive)	> 100 µM (inactive)	> 100 µM (inactive)	12.1 µM (inactive)	> 100 µM (inactive)	59.2 µM (inactive)	> 100 µM (inactive)	> 100 µM (inactive)
CCc1c(Cc2[nH]c(Cc3[nH]c(C=O)c(C)c3CC)c(CC)c2CC)[nH]c(C=O)c1C	> 100 µM (inactive)	> 100	> 100 µM (inactive)	> 100 µM (inactive)	–	> 100 µM (inactive)	> 100 µM (inactive)	> 10 µM (inactive)	> 100 µM (inactive)	34.6 µM (inactive)	> 100 µM (inactive)	> 100 µM (inactive)	–	> 100 µM (inactive)
COc1cc(O)c2c(c1)C(=O)C1=C(C2=O)C(O)C[C@@](C)(O)C1 (some centres undefined)	0.264 µM (active)	0.358	8.71 µM (inactive)	0.557 µM (active)	1.51 µM (inactive)	2.57 µM (inactive)	1.5 µM (inactive)	1.63 µM (inactive)	5.9 µM (inactive)	3.41 µM (inactive)	1.37 µM (inactive)	2.67 µM (inactive)	1.28 µM (inactive)	0.424 µM (active)
N#Cc1ccc(/C=N/C23CC4CC(CC(C4)C2)C3)cc1	> 100 µM (inactive)	> 100	> 100 µM (inactive)	> 100 µM (inactive)	> 100 µM (inactive)	> 100 µM (inactive)	> 100 µM (inactive)	> 100 µM (inactive)	> 100 µM (inactive)	> 10 µM (inactive)	> 100 µM (inactive)	> 100 µM (inactive)	> 100 µM (inactive)	76.6 µM (inactive)
CC(C)(C)c1cc(C(P(=O)(O)O)P(=O)(O)O)cc(C(C)(C)C)c1O	–	> 100	> 100 µM (inactive)	> 10 µM (inactive)	> 100 µM (inactive)	> 100 µM (inactive)	> 100 µM (inactive)	> 100 µM (inactive)	> 100 µM (inactive)	95.1 µM (inactive)	> 100 µM (inactive)	> 100 µM (inactive)	> 100 µM (inactive)	> 100 µM (inactive)
COC1OC(C)C(O)CC1OS(=O)(=O)c1ccc(C)cc1 (centres undefined)	> 100 µM (inactive)	> 100	–	> 100 µM (inactive)	> 100 µM (inactive)	> 100 µM (inactive)	> 100 µM (inactive)	> 100 µM (inactive)	> 100 µM (inactive)	37.9 µM (inactive)	> 100 µM (inactive)	> 100 µM (inactive)	> 100 µM (inactive)	> 100 µM (inactive)
Cc1c2n(c(=O)[nH]c1=O)C1OC(CO)C(O2)C1O (centres undefined)	> 100 µM (inactive)	> 100	> 100 µM (inactive)	–	> 100 µM (inactive)	> 100 µM (inactive)	> 100 µM (inactive)	> 100 µM (inactive)	> 100 µM (inactive)	> 100 µM (inactive)	> 100 µM (inactive)	> 100 µM (inactive)	23 µM (inactive)	> 100 µM (inactive)
CC(C)C1CCC/C=C/C=C/C=C/C=C/C(OC2OC(C)C(O)C(N)C2O)CC2OC(O)(CC(O)CC(O)C(O)CCC(=O)O1)CC(O)C2C(=O)O (centres undefined)	> 52.5 µM (inactive)	> 52.5	> 52.5 µM (inactive)	> 52.5 µM (inactive)	–	> 52.5 µM (inactive)	> 52.5 µM (inactive)	–	> 52.5 µM (inactive)	> 52.5 µM (inactive)	> 52.5 µM (inactive)	> 52.5 µM (inactive)	> 52.5 µM (inactive)	–
COC1(OC)C(N(C)C)=C(Cl)C(=O)/C1=C/C=O	> 100 µM (inactive)	98.9	> 100 µM (inactive)	> 100 µM (inactive)	> 100 µM (inactive)	–	53.8 µM (inactive)	–	> 100 µM (inactive)	–	40 µM (inactive)	> 100 µM (inactive)	> 100 µM (inactive)	84.7 µM (inactive)
C[S+](C)CCOC(=O)C(=[N+]=[N-])c1ccc([N+](=O)[O-])cc1	> 100 µM (inactive)	> 100	> 100 µM (inactive)	> 100 µM (inactive)	> 100 µM (inactive)	> 100 µM (inactive)	–	> 100 µM (inactive)	> 100 µM (inactive)	> 100 µM (inactive)	> 100 µM (inactive)	> 100 µM (inactive)	> 100 µM (inactive)	–
O=c1[nH]nc2ccccc2c1Cc1ccccc1	> 100 µM (inactive)	> 100	> 100 µM (inactive)	> 100 µM (inactive)	> 100 µM (inactive)	> 100 µM (inactive)	> 100 µM (inactive)	> 100 µM (inactive)	> 100 µM (inactive)	96.6 µM (inactive)	> 100 µM (inactive)	> 100 µM (inactive)	> 100 µM (inactive)	> 100 µM (inactive)
CC(=O)C1C(=O)N(C(C)C)C[C@@H]2CCC(=O)C[C@H]12 (some centres undefined)	> 100 µM (inactive)	> 100	> 100 µM (inactive)	> 100 µM (inactive)	> 100 µM (inactive)	> 100 µM (inactive)	> 100 µM (inactive)	> 100 µM (inactive)	> 100 µM (inactive)	> 100 µM (inactive)	> 100 µM (inactive)	> 100 µM (inactive)	> 100 µM (inactive)	> 100 µM (inactive)
COC(=O)C(/C(=N/N)C(=O)Nc1cc(Cl)ccc1Cl)c1nc2ccc([N+](=O)[O-])cc2nc1O (centres undefined)	> 100 µM (inactive)	76.4	> 100 µM (inactive)	> 100 µM (inactive)	> 100 µM (inactive)	93.3 µM (inactive)	> 100 µM (inactive)	> 100 µM (inactive)	> 100 µM (inactive)	–	> 100 µM (inactive)	40 µM (inactive)	58.5 µM (inactive)	> 100 µM (inactive)
Cc1c(C(=O)/C=C/c2c(Cl)cccc2Cl)c(=O)n(-c2ccccc2)n1C	13.9 µM (inactive)	19.5	–	53.8 µM (inactive)	–	> 10 µM (inactive)	36.1 µM (inactive)	26.1 µM (inactive)	43 µM (inactive)	–	21.6 µM (inactive)	31.8 µM (inactive)	22.4 µM (inactive)	11.8 µM (inactive)
Nc1ccn(C2(CO)C=C(CO)C(O)C2O)c(=O)n1 (centres undefined)	> 25.8 µM (inactive)	> 25.8	> 25.8 µM (inactive)	> 25.8 µM (inactive)	> 25.8 µM (inactive)	> 25.8 µM (inactive)	> 25.8 µM (inactive)	> 25.8 µM (inactive)	> 25.8 µM (inactive)	> 25.8 µM (inactive)	> 25.8 µM (inactive)	> 25.8 µM (inactive)	> 25.8 µM (inactive)	–
